Test results published in patent US20130164351A1 (priority 2010, published 2013).

Key:
[1] = tested on: P. aeruginosa strains from cystic fibrosis patients; experiment: Macrobroth dilution MICs against two P. aeruginosa strains; type: cell-based, Pseudomonas aeruginosa
[2] = tested on: B. cepacia strains from cystic fibrosis patients; experiment: Macrobroth dilution MICs against two B. cepacia strains; type: cell-based, Burkholderia cepacia
[3] = tested on: B. cepacia strains BCEP 953, BCEP 954; experiment: Time-kill macrobroth MICs, B. cepacia strains BCEP 953 and BCEP 954; type: cell-based, Burkholderia cepacia
Description: (§1) Susceptibility testing. Original MICs of each strain to CEM-102 and other comparators was tested by CLSI microdilution methodology. Trays were obtained from Trek, Inc., Cleveland, Ohio. Time-kill macrobroth MIC dilution by CLSI was performed for all synergy testing.
(§2) Synergy testing. Two of the MRSA strains were chosen and tested for synergy, together with the four Gram-negative strains mentioned above. Broth macrodilution formed the basis of MICs used in time-kill experiments, as detailed below. The kill kinetics of each drug was tested alone by incubating an initial inoculum of 5×10^5 to 5×10^6 cfu/ml with drug concentrations at the MIC, three dilutions above and three dilutions below the MIC (1/2, 1/4 and 1/8×MIC). Viability counts were performed after 0, 3, 6, 12 and 24 h incubation at 37° C. in a shaking water bath by plating onto trypticase soy-5% sheep blood agar plates.

[4] = tested on: P. aeruginosa strains PSAR 461, PSAR 468; experiment: Time-kill macrobroth MICs, P. aeruginosa strains PSAR 461 and PSAR 468; type: cell-based, Pseudomonas aeruginosa; conditions: strain PSAR 468
Description: as §1, §2

[5] = tested on: MRSA strains SA 2230, SA 2232; experiment: Time-kill macrobroth MICs, MRSA strains SA 2230 and SA 2232; type: cell-based, Staphylococcus aureus
Description: as §1, §2

[6] = tested on: MRSA strains from cystic fibrosis patients; experiment: CLSI microdilution MICs against 40 MRSA strains; type: cell-based, Staphylococcus aureus; parameters: MICs (range): unit not given beside the values
Description: Strains. Two strains each of mucoid Pseudomonas aeruginosa (both pyocyanin positive) and 40 MRSA (only one strain with gold colonies), isolated within the past 12 months and beyond from patients at in cystic fibrosis clinic, were tested. Additionally, two B. cepacia strains were acquired from Hershey Medical Center. All strains were identified by standard methods. Only one strain per patient was tested. MLVA was done on all strains, to examine clonality and to ensure that testing was not being limited to only one or a few clones. Strains were stored in skim milk at −70° C. until use.
as §1
MICs were assayed by standard methodology.

[7] = blood; cited from earlier work
[8] = Staphylococcus aureus, microdilution, 40 MRSA strains

Molecule: NCC[C@H](O)C(=O)N[C@@H]1C[C@H](N)[C@@H](O[C@H]2O[C@H](CN)[C@@H](O)[C@H](O)[C@H]2O)[C@H](O)[C@H]1O[C@H]1O[C@H](CO)[C@@H](O)[C@H](N)[C@H]1O [Amikacin]
- MIC Range [1]: 2 to 8 µg/mL

Molecule: CC(=O)O[C@H]1C[C@@]2(C)[C@@H](C[C@@H](O)[C@H]3[C@@]4(C)CC[C@@H](O)[C@@H](C)[C@@H]4CC[C@@]32C)/C1=C(\CCC=C(C)C)C(=O)[O-].[Na+] [CEM-102, Sodium fusidate]
- MIC Range [2]: >64 µg/mL
- MIC Range [1]: >64 µg/mL
- Time-kill macrobroth MIC ([3]; strain BCEP 953): 512 µg/mL
- Time-kill macrobroth MIC ([3]; strain BCEP 954): 512 µg/mL
- Time-kill macrobroth MIC [4]: 256 µg/mL
- Time-kill macrobroth MIC ([5]; strain SA 2230): 0.5 µg/mL
- Time-kill macrobroth MIC ([5]; strain SA 2232): 0.25 µg/mL
- MIC50 [6, 8]: 0.12 µg/mL
- MIC90 [6, 8]: 0.25 µg/mL
- Potency in words ([6]; all strains of MRSA tested): very potent
- MIC Range ([6]; microdilution, 40 MRSA strains): 0.12 to 0.5 µg/mL

Molecule: CCCCCCCCCC(=O)N[C@@H](Cc1c[nH]c2ccccc12)C(=O)N[C@H](CC(N)=O)C(=O)N[C@@H](CC(=O)O)C(=O)N[C@@H]1C(=O)NCC(=O)N[C@@H](CCCN)C(=O)N[C@@H](CC(=O)O)C(=O)N[C@H](C)C(=O)N[C@@H](CC(=O)O)C(=O)NCC(=O)N[C@H](CO)C(=O)N[C@@H]([C@H](C)CC(=O)O)C(=O)N[C@@H](CC(=O)c2ccccc2N)C(=O)O[C@@H]1C [Daptomycin]
- MIC Range ([6]; microdilution, 40 MRSA strains): 0.5-1^ μg/ml

Molecule: CC(=O)O[C@H]1C[C@@]2(C)[C@@H](C[C@@H](O)[C@H]3[C@@]4(C)CC[C@@H](O)[C@@H](C)[C@@H]4CC[C@@]32C)/C1=C(\CCC=C(C)C)C(=O)O [FA, Fusidic Acid]
- protein binding [7]: 95-97%

Molecule: CC(=O)NC[C@H]1CN(c2ccc(N3CCOCC3)c(F)c2)C(=O)O1 [Linezolid]
- MICs (range) ([6]; all MRSA strains tested): 1-4
- MIC Range ([6]; microdilution, 40 MRSA strains): 1 to 4 µg/mL

Molecule: CN(C)c1cc(NC(=O)CNC(C)(C)C)c(O)c2c1C[C@H]1C[C@H]3[C@H](N(C)C)C(O)=C(C(N)=O)C(=O)[C@@]3(O)C(O)=C1C2=O [Tigecycline]
- MIC Range ([6]; microdilution, 40 MRSA strains): 0.12 to 0.25 µg/mL

Molecule: NC[C@H]1O[C@H](O[C@H]2[C@H](O)[C@@H](O[C@H]3O[C@H](CO)[C@@H](O)[C@H](N)[C@H]3O)[C@H](N)C[C@@H]2N)[C@H](N)C[C@@H]1O [Tobramycin, reference compound]
- MIC Range [1]: 0.25 to 1.0 µg/mL
- MIC (reason strain not tested in combination) ([5]; strain MRSA 2232): > 512 µg/mL

Molecule: CN[C@H](CC(C)C)C(=O)N[C@H]1C(=O)N[C@@H](CC(N)=O)C(=O)N[C@H]2C(=O)N[C@H]3C(=O)N[C@H](C(=O)N[C@H](C(=O)O)c4cc(O)cc(O)c4-c4cc3ccc4O)[C@H](O)c3ccc(c(Cl)c3)Oc3cc2cc(c3O[C@@H]2O[C@H](CO)[C@@H](O)[C@H](O)[C@H]2O[C@H]2C[C@](C)(N)[C@H](O)[C@H](C)O2)Oc2ccc(cc2Cl)[C@H]1O [Vancomycin]
- MIC Range ([6]; microdilution, 40 MRSA strains): 0.5-1^ μg/ml

Molecule: Teicoplanin
- MIC Range ([6]; microdilution, 40 MRSA strains): 0.25 to 1 µg/mL
